Test results as given in PMC9737772, “Synthesis and Anti-Inflammatory Activity of 1-Methylhydantoin Cinnamoyl Imides” (Molecules, 2022).

Legend:
[1] = system: TNF-α secretion in RAW264.7 cells induced by LPS; experiment: TNF-α content in supernatant of LPS-induced RAW264.7 cells (ELISA); assay type: cell-based, mouse; settings: 20 μM, LPS 1 ug/mL, 24 h, RAW264.7, vs model group
Description: Tumor necrosis factor-α (TNF-α) is a pleiotropic proinflammatory cytokine, known for its proinflammatory activity. To explore the inhibitory effects of five compounds on TNF-α, ELISA was used to determine the content of inflammatory factor TNF-α in the supernatant of RAW264.7 cells stimulated by LPS. RAW264.7 cells secreted a large amount of inflammatory-factor TNF-α 24 h after LPS (1 ug/mL) induction.
(§1) RAW264.7 mouse macrophages were purchased from Zhongqiao Xinzhou and cultured in DMEM supplemented with 10% fetal bovine serum (FBS) and 1% penicillin/streptomycin in a 37 °C, 5% CO2 incubator. The cells were passaged every two days to maintain the monolayer cell state.
(§2) The RAW264.7 cells in the logarithmic growth phase were seeded in a 24-well plate and placed in a 37 °C, 5% CO2 constant temperature incubator for culture. After 24 h, the culture medium was discarded. The blank group was added with 10% FBS DMEM 1 mL. The group was added with a medium containing 1 ug/mL LPS, and the experimental group was added with LPS and different concentrations of the target compound to make the final volume 1 mL. After 24 h of culture, the cell supernatant was taken and stored in a refrigerator at −20 °C for later use. The Griess kit was used to determine the concentration of NO in the supernatant, and a double antibody sandwich ELISA kit was used to detect TNF-α and IL-1β.

[2] = system: xylene-induced ear edema in mice; experiment: Xylene-induced ear edema in mice; assay type: in vivo, Kunming mice; settings: for Degree of Edema: 30 μL xylene, 30 min, mean ± SD, n = 6; for Inhibition of ear swelling: xylene-induced ear edema
Description: To evaluate the differences in anti-inflammatory effects of the five compounds, the in vivo anti-inflammatory experiment was conducted based on the acute inflammation model of ear swelling induced by xylene. Under the inflammatory effect of 30 μL of xylene, the degree of ear swelling in the blank group and each experimental group was different. […] With an increase in dose the degree of ear swelling decreased, and the effect of ear swelling inhibition was more significant at high dose (100 mg/kg). Under the action of drugs, the five target compounds (1–5) have significant inhibitory effects on ear swelling (Figure 6).
Adult male Kunming mice (18–20 g) were bought from Liaoning Changsheng Biotechnology Co., Ltd. (Shenyang, China, License No. SCXK (Liao) 2015-0001). The breeding is carried out under standard conditions without pathogens (constant room temperature 20–22 °C, 55 ± 5% humidity, 12 h light–dark cycle and free access to food and water). The research protocol has been approved by the Animal Experiment Ethics Committee of the School of Pharmacy of Jilin University (20190048). All experimental operations follow the principles of laboratory animal care, and all animal experiments are conducted in accordance with the Guide for the Care and Use of Laboratory Animals (released by the National Research Council).
In this experiment, Kunming mice were randomly divided into two groups. One group was given 5% sodium carboxymethyl cellulose solution as the blank group, and the other group was given different concentrations of the target compound as the experimental group (high, medium and low doses); continuous intragastric administration was two days and the volume of intragastric administration was 0.2 mL. One hour after the last administration, 30 μL of xylene was evenly smeared on both sides of the mouse’s right ear. After 30 min, the mouse’s right ear was obviously red and swollen and the capillary congestion was severe. Cervical vertebrae were dislocated and sacrificed. The ears on both sides were quickly cut off, an 8 mm ear punch was used to punch holes at the same position on the ears on both sides and they were immediately weighed to calculate the weight difference.
The formula for the difference in ear weight is as follows:(2) D=Wr−Wl where Wr was the weight of the right ear and Wl was the weight of the left ear.
The formula for the inhibition rate of ear swelling is as follows:(3) Inhibition %=Dc−Dt/Dc×100% where Dc was the extent of ear edema of the control group and Dt was the extent of ear edema of the treatment group.

[3] = Cytotoxicity determination by CCK-8; assay type: cell-based; settings: mouse, RAW264.7 macrophage cells, RAW264.7 cells
Description: as §1
The CCK-8 kit was used to determine the cytotoxicity of the target compounds (1–5) to RAW264.7 cells. The well-growing cells were subcultured in a 96-well plate. After the cells adhered to the wall, the experimental group was added with a medium containing different concentrations of compounds to make the final concentration reach 5, 10, 20, 40, 80, 160 and 320 μmoL/L. The control group was added with a medium without compound, and a blank group without cells or compound was set at the same time. After culturing in a constant temperature incubator for a period, CCK-8 solution was added to produce yellow formazan product. The OD value was measured by the microplate reader at the detection wavelength of 450 nm, and the cell survival rate was calculated. The cell survival rate formula is as follows:(1) Cell Survival Rate %=ODe−ODb/ODc−ODb×100% where ODe was the OD value of the experimental group, ODb was the OD value of the blank group, and ODc was the OD value of the control group.

[4] = system: IL-1β secretion in RAW264.7 cells induced by LPS; experiment: IL-1β content in supernatant of LPS-induced RAW264.7 cells (ELISA); assay type: cell-based, mouse; settings: 20 μM, LPS, 24 h, RAW264.7, vs model group
Excerpt: Interleukin-1β (IL-1β) has strong proinflammatory activity and can induce the production of a variety of proinflammatory mediators, such as cytokines and chemokines. In this work, the ELISA method was used to determine the IL-1β content in the supernatant of RAW264.7 cells stimulated by LPS to evaluate the effects of five compounds on IL-1β secretion.
as §1, §2

[5] = system: xylene-induced ear edema in mice; parameters: method as in PMID 31247960, doi:10.2174/157018012800673092; settings: previous study; cited from earlier work
[6] = 25 mg/kg intragastric for two days
[7] = 50 mg/kg intragastric for two days
[8] = 100 mg/kg (high dose) intragastric
[9] = 100 mg/kg intragastric for two days

| SMILES | inhibition of TNF-α secretion [1] | Degree of Edema [2, 6] | Inhibition of ear swelling ([2]; 25 mg/kg intragastric) | Degree of Edema [2, 7] | Inhibition of ear swelling ([2]; 50 mg/kg intragastric) | Inhibition of ear swelling [2, 8] | Degree of Edema [2, 9] | CC50 [3] | inhibition of IL-1β secretion [4] | melting point | effect on ear edema in mice caused by xylene [5] |
| --- | --- | --- | --- | --- | --- | --- | --- | --- | --- | --- | --- |
| COc1cc(/C=C/C(=O)N2C(=O)CN(C)C2=O)ccc1OC(C)=O [Compound 5, (E)-2-methoxy-4-(3-(3-methyl-2,5-dioxoimidazolidin-1-yl)-3-oxoprop-1-en-1-yl)phenyl acetate] | no obvious inhibitory effect on TNF-α | 10.46 ± 0.64 mg | 14.61% | 7.95 ± 0.71 mg | 35.10% | 52.08% | 5.87 ± 0.75 mg | 232 µM | no obvious inhibitory effect on IL-1β | 148.3 to 149.8 °C | – |
| CN1CC(=O)N(C(=O)/C=C/c2ccc3c(c2)OCO3)C1=O [Compound 3, (E)-3-(3-(benzo[d][1,3]dioxol-5-yl)acryloyl)-1-methylimidazolidine-2,4-dione] | no obvious inhibitory effect on TNF-α | 9.41 ± 1.37 mg | 23.18% | 9.05 ± 0.84 mg | 26.12% | 33.06% | 8.20 ± 0.27 mg | 184 µM | no obvious inhibitory effect on IL-1β | 164.8 to 166.1 °C | – |
| CN1CC(=O)N(C(=O)C=Cc2ccccc2)C1=O [Compound 1, 3-cinnamoyl-1-methylimidazolidine-2,4-dione] | no obvious inhibitory effect on TNF-α | 9.84 ± 0.72 mg | 19.67% | 8.47 ± 0.64 mg | 30.86% | 44.16% | 6.84 ± 0.61 mg | 264 µM | no obvious inhibitory effect on IL-1β | 140.6 to 141.5 °C | – |
| CN1CC(=O)NC1=O [MHD, 1-Methylhydantoin] | – | – | – | – | – | – | – | – | – | – | can reduce ear edema in mice caused by xylene |
